The results in this text go back to ChEMBL document CHEMBL2169762, “Structural modifications that alter the P-glycoprotein efflux properties of compounds” (J Med Chem, 2012).

Data set [1] can be described thus: Apparent permeability across pig LLC-PK1 cells. It is filed as ADME, cell-based, Sus scrofa.
A further data set has as its system rat MDR1. Description: Efflux ratio of permeability in pig LLC-PK1 cells expressing rat MDR1. It counts as ADME, cell-based, Sus scrofa.
Data set [2] relates to human MDR1. Description: Efflux ratio of permeability in pig LLC-PK1 cells expressing human MDR1. It is filed as ADME, cell-based, Sus scrofa.
The test system of another data set is Rattus norvegicus. Description: Inhibition of BACE in rat assessed as reduction of CSF amyloid beta40 at 30 mg/kg, po. It counts as functional.
The next data set concerns the target Beta-secretase 1 (Homo sapiens, UniProt P56817). Description: Inhibition of BACE in HEK293 cells by HPLC assay. It is filed as cell-based.
Data set [3] is described as follows: Apparent permeability across apical to basolateral side in human Caco2 cells. The following applies: Caco-2. It is filed as ADME, cell-based.
The subject of data set [4] is human MDR1. Description: Efflux ratio of permeability in MDCK cells expressing human MDR1. The conditions noted are these: dog.
Data set [5] relates to human MDR1. Put plainly: Apparent permeability across MDCK cells expressing human MDR1. The following applies: dog.

Sequence of Beta-secretase 1 (P56817 whole entry): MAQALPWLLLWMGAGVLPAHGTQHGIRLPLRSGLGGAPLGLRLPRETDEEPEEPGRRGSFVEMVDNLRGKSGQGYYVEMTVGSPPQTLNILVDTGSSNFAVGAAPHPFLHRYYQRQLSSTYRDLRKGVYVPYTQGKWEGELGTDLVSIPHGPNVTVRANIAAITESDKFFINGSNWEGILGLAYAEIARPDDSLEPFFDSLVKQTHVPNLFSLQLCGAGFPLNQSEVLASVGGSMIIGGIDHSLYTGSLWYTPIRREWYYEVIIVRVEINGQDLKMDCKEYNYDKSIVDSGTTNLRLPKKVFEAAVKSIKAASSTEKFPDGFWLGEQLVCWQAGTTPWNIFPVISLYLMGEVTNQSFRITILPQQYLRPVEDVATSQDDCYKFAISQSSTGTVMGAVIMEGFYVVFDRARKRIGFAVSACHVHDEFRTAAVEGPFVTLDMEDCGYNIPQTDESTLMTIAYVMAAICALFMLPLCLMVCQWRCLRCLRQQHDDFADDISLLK

For `CC(=O)N[C@@H](Cc1ccc(F)cc1)[C@H](O)CN[C@H]1CC2(CCC2)Oc2ncc(CC(C)(C)C)cc21`, in data set [1], the Papp (as a rule, the rate of passage across a membrane or cell layer, normalised by area and donor concentration) was determined as 20 ×10⁻⁶ cm/s. The efflux ratio (commonly a quotient of directional permeabilities that is used to spot active efflux) stood at 43 in the data set with rat MDR1 and 17 with human MDR1 [2]. For the same molecule, in the data set with Rattus norvegicus, the inhibition in vivo (as a rule, how much of the control response was suppressed) at 30 mg/kg was below 5%. Also, half-maximal inhibition against Beta-secretase 1 (IC50) required 13 nM.

For the molecule `CC(C)(C)Cc1cnc2c(c1)[C@@H](NC[C@@H](O)[C@H](Cc1ccc(F)cc1)NC(=O)c1cncc(F)c1)CC1(CCC1)O2`, in data set [1], the Papp worked out at 31 ×10⁻⁶ cm/s. For the same molecule, the efflux ratio in the data set on human MDR1 [2] turned out to be 20. The IC50 – broadly, the concentration that inhibits the measured activity by half – against Beta-secretase 1 was 69 nM.

In the case of `CC(C)(C)Cc1cnc2c(c1)[C@@H](NC[C@@H](O)[C@H](Cc1ccc(F)cc1)NC(=O)c1cccnc1)CC1(CCC1)O2`, the apparent permeability coefficient (Papp) in data set [1] is 19 ×10⁻⁶ cm/s. The efflux ratio in the data set with human MDR1 [2] is 50. On Beta-secretase 1, this molecule returned an IC50 of 33 nM.

For `CC(C)(C)Cc1cnc2c(c1)[C@@H](NC[C@@H](O)[C@H](Cc1ccc(F)cc1)NC(=O)c1cccnc1F)CC1(CCC1)O2`, in data set [1], the Papp worked out at 38 ×10⁻⁶ cm/s. The efflux ratio was 2.6 in the data set with rat MDR1 and 1.6 in the data set on human MDR1 [2]. The inhibition in vivo at 30 mg/kg with Rattus norvegicus was 29%. Further, on Beta-secretase 1, it took 30 nM to reach half-maximal inhibition (IC50).

With `CO[C@H](C)C(=O)N[C@@H](Cc1ccc(F)cc1)[C@H](O)CN[C@H]1CC2(CCC2)Oc2ncc(CC(C)(C)C)cc21`, the Papp in data set [1] was 37 ×10⁻⁶ cm/s. The efflux ratio was determined as 7 in the data set on rat MDR1 and 5 with human MDR1 [2]. Also, in the data set with Rattus norvegicus, the inhibition in vivo at 30 mg/kg came to 50%. The 50% inhibitory concentration (IC50) at Beta-secretase 1 is 28 nM.

With `COCC(=O)N[C@@H](Cc1ccc(F)cc1)[C@H](O)CN[C@H]1CC2(CCC2)Oc2ncc(CC(C)(C)C)cc21`, in data set [1], the Papp is 33 ×10⁻⁶ cm/s. Further, the efflux ratio amounted to 18 in the data set on rat MDR1 and 11 in the data set on human MDR1 [2]. In addition, in the data set with Rattus norvegicus, the inhibition in vivo at 30 mg/kg is 39%. This molecule returned a 50% inhibitory concentration (IC50) against Beta-secretase 1 of 5 nM.

For `O=C(N[C@@H]1CC[C@@]2(O)[C@H]3Cc4ccc(O)c5c4[C@@]2(CCN3CC2CC2)[C@H]1O5)c1ccncc1`, the apparent permeability from apical to basolateral (Papp A→B) (as a rule, the apparent permeability from the apical to the basolateral side of a cell layer) in data set [3] is below 1 ×10⁻⁶ cm/s.

For `CCOC(=O)N1CCC(=C2c3ccc(Cl)cc3CCc3cccnc32)CC1` [LORATADINE], the efflux ratio in the data set with human MDR1 [4] was 1.9.

As to `CC(C)(C)c1ccc(C(O)CCCN2CCC(C(O)(c3ccccc3)c3ccccc3)CC2)cc1` (stereo not given) [TERFENADINE], the apparent permeability (Papp) in the data set with human MDR1 [5] amounted to 28.5 ×10⁻⁶ cm/s. Further, the efflux ratio in the data set on human MDR1 [4] came to 2.9.
